Results reported in PubChem BioAssay AID1259407 (Chemical Carcinogenesis Research Information System (CCRIS), 2018).
Active and inactive are the calls of the source. How the calls were made is not given here.

Tested on: CCRIS mutagenicity, Ames/micronucleus/aberration tests
Assay: CCRIS mutagenicity studies
[1] = Test System: AMES SALMONELLA TYPHIMURIUM, Strain/Indicator: TA98, Metabolic Activation: NONE, Method: PREINCUBATION
[2] = Test System: AMES SALMONELLA TYPHIMURIUM, Strain/Indicator: TA100, Metabolic Activation: NONE, Method: PREINCUBATION
[3] = Test System: AMES SALMONELLA TYPHIMURIUM, Strain/Indicator: TA102, Metabolic Activation: NONE, Method: PREINCUBATION

With `Cc1cccc(O)c1` the mutagenic call (End Point: IN VITRO CHROMOSOMAL ABERRATIONS, Test System: SYRIAN HAMSTER EMBRYO (SHE) CELLS, Metabolic Activation: NONE) was “active; positive (structural changes)”, the mutagenic call (End Point: IN VITRO CHROMOSOMAL ABERRATIONS, Test System: SYRIAN HAMSTER EMBRYO (SHE) CELLS, Metabolic Activation: RAT, LIVER, S-9) was “active; positive (structural changes)” and the mutagenic call [1] was “inactive; negative”. For the same compound, the mutagenic call (Test System: AMES SALMONELLA TYPHIMURIUM, Strain/Indicator: TA98, Metabolic Activation: RAT, LIVER, S-9, SODIUM PHENOBARBITAL AND 5,6-BENZOFLAVONE, Method: PREINCUBATION) was “inactive; negative”, the mutagenic call [2] was “inactive; negative” and the mutagenic call (Test System: AMES SALMONELLA TYPHIMURIUM, Strain/Indicator: TA100, Metabolic Activation: RAT, LIVER, S-9, SODIUM PHENOBARBITAL AND 5,6-BENZOFLAVONE, Method: PREINCUBATION) was “inactive; negative”. The mutagenic call [3] was “inactive; negative”, the mutagenic call (Test System: AMES SALMONELLA TYPHIMURIUM, Strain/Indicator: TA102, Metabolic Activation: RAT, LIVER, S-9, SODIUM PHENOBARBITAL AND 5,6-BENZOFLAVONE, Method: PREINCUBATION) was “inactive; negative” and the mutagenic call (Test System: AMES SALMONELLA TYPHIMURIUM, Strain/Indicator: TA104, Metabolic Activation: NONE, Method: PREINCUBATION) was “inactive; negative”. For the same compound, the mutagenic call (Test System: AMES SALMONELLA TYPHIMURIUM, Strain/Indicator: TA104, Metabolic Activation: RAT, LIVER, S-9, SODIUM PHENOBARBITAL AND 5,6-BENZOFLAVONE, Method: PREINCUBATION) was “inactive; negative”, the mutagenic call (Test System: AMES SALMONELLA TYPHIMURIUM, Strain/Indicator: TA1535, Metabolic Activation: NONE, Method: PREINCUBATION) was “inactive; negative” and the mutagenic call (Test System: AMES SALMONELLA TYPHIMURIUM, Strain/Indicator: TA1535, Metabolic Activation: RAT, LIVER, S-9, SODIUM PHENOBARBITAL AND 5,6-BENZOFLAVONE, Method: PREINCUBATION) was “inactive; negative”. The mutagenic call (Test System: AMES SALMONELLA TYPHIMURIUM, Strain/Indicator: TA1537, Metabolic Activation: NONE, Method: PREINCUBATION) was “inactive; negative”, the mutagenic call (Test System: AMES SALMONELLA TYPHIMURIUM, Strain/Indicator: TA1537, Metabolic Activation: RAT, LIVER, S-9, SODIUM PHENOBARBITAL AND 5,6-BENZOFLAVONE, Method: PREINCUBATION) was “inactive; negative” and the mutagenic call (Test System: Ames Salmonella typhimurium, Strain/Indicator: TA98, Metabolic Activation: Hamster, Liver, S-9, Aroclor 1254 (10%), Method: Preincubation) was “inactive; negative”. For the same compound, the mutagenic call (Test System: Ames Salmonella typhimurium, Strain/Indicator: TA98, Metabolic Activation: None, Method: Preincubation) was “inactive; negative”, the mutagenic call (Test System: Ames Salmonella typhimurium, Strain/Indicator: TA98, Metabolic Activation: Rat, Liver, S-9, Aroclor 1254 (10%), Method: Preincubation) was “inactive; negative” and the mutagenic call (Test System: Ames Salmonella typhimurium, Strain/Indicator: TA100, Metabolic Activation: Hamster, Liver, S-9, Aroclor 1254 (10%), Method: Preincubation) was “inactive; negative”. The mutagenic call (Test System: Ames Salmonella typhimurium, Strain/Indicator: TA100, Metabolic Activation: None, Method: Preincubation) was “inactive; negative”, the mutagenic call (Test System: Ames Salmonella typhimurium, Strain/Indicator: TA100, Metabolic Activation: Rat, Liver, S-9, Aroclor 1254 (10%), Method: Preincubation) was “inactive; negative” and the mutagenic call (Test System: Ames Salmonella typhimurium, Strain/Indicator: TA1535, Metabolic Activation: Hamster, Liver, S-9, Aroclor 1254 (10%), Method: Preincubation) was “inactive; negative”. The mutagenic call (Test System: Ames Salmonella typhimurium, Strain/Indicator: TA1535, Metabolic Activation: None, Method: Preincubation) was “inactive; negative”, the mutagenic call (Test System: Ames Salmonella typhimurium, Strain/Indicator: TA1535, Metabolic Activation: Rat, Liver, S-9, Aroclor 1254 (10%), Method: Preincubation) was “inactive; negative” and the mutagenic call (Test System: Ames Salmonella typhimurium, Strain/Indicator: TA1537, Metabolic Activation: Hamster, Liver, S-9, Aroclor 1254 (10%), Method: Preincubation) was “inactive; negative”. The mutagenic call (Test System: Ames Salmonella typhimurium, Strain/Indicator: TA1537, Metabolic Activation: None, Method: Preincubation) was “inactive; negative”, the mutagenic call (Test System: Ames Salmonella typhimurium, Strain/Indicator: TA1537, Metabolic Activation: Rat, Liver, S-9, Aroclor 1254 (10%), Method: Preincubation) was “inactive; negative” and the mutagenic call (Test System: E. COLI, Strain/Indicator: WP2UVRA/PKM101, Metabolic Activation: NONE, Method: PREINCUBATION) was “inactive; negative”. The mutagenic call (Test System: E. COLI, Strain/Indicator: WP2UVRA/PKM101, Metabolic Activation: RAT, LIVER, S-9, PHENOBARBITAL AND BETA-NAPHTHOFLAVONE, Method: PREINCUBATION) was “inactive; negative”, the mutagenic call (Test System: E. COLI, Strain/Indicator: WP2UVRA, Metabolic Activation: NONE, Method: PREINCUBATION) was “inactive; negative” and the mutagenic call (Test System: E. COLI, Strain/Indicator: WP2UVRA, Metabolic Activation: RAT, LIVER, S-9, PHENOBARBITAL AND BETA-NAPHTHOFLAVONE, Method: PREINCUBATION) was “inactive; negative”.

`CC1=CC(=O)C(C(C)C)=CC1=O` was tested, and the mutagenic call [1] was “inactive; negative”, the mutagenic call (Test System: AMES SALMONELLA TYPHIMURIUM, Strain/Indicator: TA98, Metabolic Activation: RAT, LIVER, S-9, PHENOBARBITAL AND 5,6-BENZOFLAVONE, Method: PREINCUBATION) was “inactive; negative” and the mutagenic call [2] was “inactive; negative”. The mutagenic call (Test System: AMES SALMONELLA TYPHIMURIUM, Strain/Indicator: TA100, Metabolic Activation: RAT, LIVER, S-9, PHENOBARBITAL AND 5,6-BENZOFLAVONE, Method: PREINCUBATION) was “inactive; negative”, the mutagenic call [3] was “inactive; negative” and the mutagenic call (Test System: AMES SALMONELLA TYPHIMURIUM, Strain/Indicator: TA102, Metabolic Activation: RAT, LIVER, S-9, PHENOBARBITAL AND 5,6-BENZOFLAVONE, Method: PREINCUBATION) was “inactive; negative”. The mutagenic call (Test System: AMES SALMONELLA TYPHIMURIUM, Strain/Indicator: TA104, Metabolic Activation: RAT, LIVER, S-9, PHENOBARBITAL AND 5,6-BENZOFLAVONE, Method: PREINCUBATION) was “inactive; negative”, the mutagenic call (Test System: AMES SALMONELLA TYPHIMURIUM, Strain/Indicator: TA2637, Metabolic Activation: NONE, Method: PREINCUBATION) was “active; positive” and the mutagenic call (Test System: AMES SALMONELLA TYPHIMURIUM, Strain/Indicator: TA2637, Metabolic Activation: RAT, LIVER, S-9, PHENOBARBITAL AND 5,6-BENZOFLAVONE, Method: PREINCUBATION) was “inactive; negative”.

In the case of `CCCCOC(=O)[C@@H](C)Oc1ccc(Oc2ccc(C#N)cc2F)cc1`, the mutagenic call (End Point: In vitro chromosomal aberrations, Test System: Chinese hamster lung (CHL) cells, Metabolic Activation: None) is reported as “active; positive (ploidy)”, the mutagenic call (End Point: In vitro chromosomal aberrations, Test System: Chinese hamster lung (CHL) cells, Metabolic Activation: Rat, liver, S-9, Aroclor 1254) is reported as “inactive; negative” and the mutagenic call (End Point: In vivo micronucleus, Test System: Bone marrow polychromatic erythgrocytes, Species: Mouse, Strain/Sex: ICR (Crj:CD-1)/ Female, Route: Oral (Gavage)) is reported as “inactive; negative”. For the same compound, the mutagenic call (End Point: In vivo micronucleus, Test System: Bone marrow polychromatic erythgrocytes, Species: Mouse, Strain/Sex: ICR (Crj:CD-1)/ Male, Route: Oral (Gavage)) was “inactive; negative”, the mutagenic call (End Point: In vivo micronucleus, Test System: Bone marrow polychromatic erythrocytes, Species: Mouse, Strain/Sex: ICR (Crj:CD-1)/ Female, Route: Oral (Gavage)) was “inactive; negative” and the mutagenic call (End Point: In vivo micronucleus, Test System: Bone marrow polychromatic erythrocytes, Species: Mouse, Strain/Sex: ICR (Crj:CD-1)/ Male, Route: Oral (Gavage)) was “inactive; negative”. For the same compound, the mutagenic call (Test System: Ames Salmonella typhimurium, Strain/Indicator: TA98, Metabolic Activation: None, Method: Plate incorporation) was “inactive; negative”, the mutagenic call (Test System: Ames Salmonella typhimurium, Strain/Indicator: TA98, Metabolic Activation: Rat, liver, S-9, Aroclor-1254, Method: Plate incorporation) was “inactive; negative” and the mutagenic call (Test System: Ames Salmonella typhimurium, Strain/Indicator: TA100, Metabolic Activation: None, Method: Plate incorporation) was “inactive; negative”. The mutagenic call (Test System: Ames Salmonella typhimurium, Strain/Indicator: TA100, Metabolic Activation: Rat, liver, S-9, Aroclor-1254, Method: Plate incorporation) was “inactive; negative”, the mutagenic call (Test System: Ames Salmonella typhimurium, Strain/Indicator: TA1535, Metabolic Activation: None, Method: Plate incorporation) was “inactive; negative” and the mutagenic call (Test System: Ames Salmonella typhimurium, Strain/Indicator: TA1535, Metabolic Activation: Rat, liver, S-9, Aroclor-1254, Method: Plate incorporation) was “inactive; negative”. The mutagenic call (Test System: Ames Salmonella typhimurium, Strain/Indicator: TA1537, Metabolic Activation: None, Method: Plate incorporation) was “inactive; negative”, the mutagenic call (Test System: Ames Salmonella typhimurium, Strain/Indicator: TA1537, Metabolic Activation: Rat, liver, S-9, Aroclor-1254, Method: Plate incorporation) was “inactive; negative” and the mutagenic call (Test System: E. coli, Strain/Indicator: WP2 uvrA, Metabolic Activation: None, Method: Standard plate) was “inactive; negative”. For the same compound, the mutagenic call (Test System: E. coli, Strain/Indicator: WP2 uvrA, Metabolic Activation: Rat, liver, S-9, Aroclor-1254, Method: Standard plate) was “inactive; negative”, the mutagenic call (Test System: Mouse lymphoma, Strain/Indicator: L5178Y cells (TK+/TK-), Metabolic Activation: None, Method: Suspension/plate) was “inactive; negative” and the mutagenic call (Test System: Mouse lymphoma, Strain/Indicator: L5178Y cells (TK+/TK-), Metabolic Activation: Rat, liver, S-9, Aroclor-1254, Method: Suspension/plate) was “inactive; negative”.
